# Test results taken from article PMC6687188, “Novel lactate dehydrogenase inhibitors with in vivo efficacy against Cryptosporidium parvum” (PLoS Pathogens, 2019).
# Target: recombinant CpLDH protein (Cryptosporidium parvum, UniProt Q9GT92, F198L/K295E/R251K)
row,Compound,MEAN CpLDH INHIBITION (%)
1,O=C1N[C@H]2[C@H](O)[C@H](O)[C@@H](O)[C@H](O)[C@@H]2c2cc3c(c(O)c21)OCO3 [NSC349156],-36.89
2,COC1=C(C)C(=O)C2=C(C1=O)C(CO)N1C(C#N)C3CC4C(C1C2N1CCOC41)N3C (stereo not drawn) [NSC349644],-64.47
3,Cc1ccc(S(=O)(=O)ON=C2CC(c3ccccc3)N(C)C(c3ccccc3)C2)cc1 (stereo not drawn) [NSC351306],-39.05
4,COc1cc(C(C)c2cc3c(cc2OCCO)OCO3)cc(OC)c1OC (stereo not drawn) [NSC352876],-6.93
5,Nc1ncnc2c([C@@H]3O[C@H](CO)[C@@H](O)[C@H]3O)c[nH]c12 [NSC352890],-27.24
6,CCN(CC)CC.CCOc1ccc(NC(=O)N=C=[N-])cc1.[CH-]1CCCCC1.[CH-]1CCCCC1.[CH-]1CCCCC1.[Cl-].[Sn+4] [NSC353527],-42.92
7,C=Cc1cc(OC)c2c(c1)c(=O)oc1c2cc(OC)c2c(O)ccc(C3OC(C)C(O)C(C)(O)C3O)c21 (stereo not drawn) [NSC354844],-68.14
8,NC(=O)C1=C[C@H]2[C@@H]3C=C[C@@]2(O)C(=O)O[C@@H]3O1 [NSC357683],-9.72
9,CCN(CC)Cc1cc(N=Nc2c(O)ccc3c(N=Nc4ccc(O)c(CN(CC)CC)c4)c(O)ccc23)ccc1O.Cl [NSC359463],-17.14
10,COC(=O)C1(C)CCCC2(C)C3CCC4CC3(C=C4CO)CCC12 (stereo not drawn) [NSC360861],-29.11
11,CN1CCN(CN2C(=O)C3C4C=CC(C3C2=O)C2C3C(=O)N(CN5CCN(C)CC5)C(=O)C3C42)CC1 (stereo not drawn) [NSC361813],-202.91
12,COC(=O)NC1C(C)OC(OC2C/C=C(/C)C3C=CC4C(OC5CC(OC6CC(O)C(OC7CC(O)C(OC)C(C)O7)C(C)O6)C(O)C(C)O5)C(C)CC(C)C4C3(C)/C(O)=C3\C(=O)OC4(CC(C)C(CO)=CC4/C=C\2C)C3=O)CC1(C)[N+](=O)[O-] (stereo not drawn) [NSC363182],-79.07
13,CC1(C)[C@@H]2CC[C@@]1(CS(=O)(=O)O)C(=O)C2.CN1[C@@H](c2ccccc2)CC(=NO)C[C@H]1c1ccccc1 [NSC363744],-9.54
14,Cl.O=C1c2cccc(NCCCNCCO)c2C(=O)c2cccc(NCCCNCCO)c21 [NSC363998],-2.96
15,N#CC(=S)Nc1ccc(F)cc1 [NSC369317],-8.49
16,Cc1ccc(NC(=S)C#N)c(C)c1 [NSC369318],-37.61
17,COc1ccc2c(c1)CCc1c-2n[nH]c1-c1[nH]nc2c1CCc1cc(OC)ccc1-2 [NSC371846],-16.04
18,CN1C(Cl)=NS(=O)(=O)c2ccccc21 [NSC373853],-15.72
19,Cc1ccc(NC(=O)c2cc3ccccc3c(N=Nc3ccccc3O)c2O)c(C)c1 [NSC374898],-39.33
20,CC1(C)CCC[C@]2(C)C3=C(CC[C@@H]12)C(=O)OC3 [NSC375294],-39.63
21,Nc1ccn([C@@H]2C=C(CO)[C@@H](O)[C@H]2O)c(=O)n1 [NSC375575],-28.69
22,COc1cc2oc3cc(=O)cc4oc(-c5ccccc5)cc(c2c2c1CCC(c1ccccc1)O2)c43 (stereo not drawn) [NSC376248],-15.03
23,C/C(=N\NC(=S)N1CCN(C2CCCCCC2)CC1)c1ccccn1 [NSC376265],-34.26
24,CC1(C)NC(=O)N(CCCCCCN2C(=O)NC(C)(C)C2=O)C1=O [NSC376791],-26.30
25,N#CC(=S)Nc1ccc(Cl)c(Cl)c1 [NSC379531],-50.91
26,C=C(CN(C)C)C(=O)c1ccccc1Cl.Cl [NSC382007],-43.42

row,Compound,MEAN CpLDH INHIBITION (%)
1,Br.CCN(CC)CC(C)(C)C(=O)/C=C/c1ccc(C)cc1 [NSC382766],-40.98
2,O=C1C=Cc2ncccc2C1=O [NSC400944],-2.52
3,CC1=C2C(=CC(C)(C)[C@@H]2O)C(=O)[C@](C)(O)C12CC2 [NSC400978],-79.24
4,COc1cc([C@@H]2c3cc4c(cc3C[C@H]3COC(=O)[C@@H]32)OCO4)cc(OC)c1OC [NSC403148],-8.59
5,C[C@@H]1CC[C@H]2C(C)(C)[C@H]3C[C@@]12CC[C@@]3(C)O [NSC403883],-51.63
6,N#CC(=C1C=CC(=NO)C=C1)c1ccc(Cl)cc1 [NSC405158],-30.77
7,OCC1OC(n2cnc3c(=S)nc[nH]c32)C(O)C1O (stereo not drawn) [NSC406021],-17.89
8,CC(=O)OC1CC(n2cc(F)c(=O)[nH]c2=O)OC1CO (stereo not drawn) [NSC407335],-11.80
9,C[C@]12CC[C@H](O)C[C@H]1CC[C@@H]1[C@@H]2CC[C@]2(C)[C@@H](C3=CC(=O)OC3)CC[C@]12O [NSC407806],-16.59
10,Cc1cc(O)c2c(c1)C(=O)c1cc(O)cc(O)c1C2=O [NSC408120],-6.79
11,CC(C)c1ccc2nc3ccc(C(=O)NCCN(C)C)cn3c(=O)c2c1 [NSC600305],-31.37
12,CCCCCn1cc2c3c(cccc31)C1C=C(C)CN(C)[C@@H]1C2.Cc1ccc(C(=O)OC(C(=O)O)C(OC(=O)c2ccc(C)cc2)C(=O)O)cc1 (stereo not drawn) [NSC600681],-36.35
13,CCN(CC)CCOc1ccccc1/C=C/c1noc2ccccc12.Cl [NSC601101],-6.25
14,Cc1nc2c(nc1C)C(=O)c1ccccc1C2=O [NSC602617],-40.33
15,CN(C)c1cccc(F)c1C(=O)NC(=O)Nc1ccc(Cl)cc1 [NSC603108],-29.93
16,Cc1ccc(S(=O)(=O)[O-])cc1.Cc1ccc(S(=O)(=O)[O-])cc1.Cn1c(-c2ccc(/C=C/C=N/NC(=O)c3ccc(C(=O)N/N=C/C=C/c4ccc(-c5c[n+]6ccccc6n5C)cc4)cc3)cc2)c[n+]2ccccc12 [NSC603169],-164.45
17,C[Si](C)(CN)CN.[Cl][Pt][Cl] [NSC603577],-0.38
18,Cc1ccc(S(=O)(=O)NC(=O)NC2=NC(C)(C)N(c3ccc(Cl)c(Cl)c3)C(N)=N2)cc1 [NSC603624],-12.73
19,O=c1[nH]c2ccc(O)cc2o1 [NSC603719],-2.52
20,C[C@H](CSC(=O)c1ccccc1)C(=O)N1c2ccccc2C[C@H]1C(=O)O [NSC604535],-8.81
21,Cl.Nc1ccc2cc3ccc(N)cc3nc2c1 [NSC605756],-35.77
22,CC(C)(C)OC(=O)NC(Cc1ccccc1)C(=O)OCN1C(=O)C2C3C=CC(C2C1=O)C1C2C(=O)N(COC(=O)C(Cc4ccccc4)NC(=O)OC(C)(C)C)C(=O)C2C31 (stereo not drawn) [NSC607316],-7.22
23,O=[N+]([O-])c1ccc(-c2cn(-c3ccc(Cl)cc3)cn2)cc1 [NSC610744],-19.53
24,COc1cc(C(O)CCBr)c(OC)cc1C (stereo not drawn) [NSC611750],-11.25
25,CC(=O)Oc1ccc(C(c2ccc(OC(C)=O)cc2)c2ccccn2)cc1 [NSC614826],-3.85
26,CC1(C)C(O)OC(O)C1(C)C (stereo not drawn) [NSC614928],-7.87

row,Compound,MEAN CpLDH INHIBITION (%)
1,C=C(C#N)C(=O)OCC(CC)CC.C=C(C#N)C(=O)OCC(CC)CC.CS(C)=O.CS(C)=O.Nc1c(N=Nc2ccc(-c3ccc(N=Nc4cc(S(=O)(=O)[O-])c5ccccc5c4N)cc3)cc2)cc(S(=O)(=O)[O-])c2ccccc12.[Pt+2] [NSC615593],-2.09
2,OC(CBr)C(O)C(O)C(O)CBr (stereo not drawn) [NSC616232],-42.37
3,CC(C)(C)[Si](C)(C)OCC1CCC(n2cnc3c(N)ncnc32)O1 (stereo not drawn) [NSC616355],-24.91
4,CCCCCC/C=C\CCCCCCCCCc1cccc(OC)c1O [NSC617540],-6.79
5,COc1ccc2c(c1)C=C([N+](=O)[O-])C(C1OC(C)(C)OC1C1COC(C)(C)O1)O2 (stereo not drawn) [NSC618261],-65.69
6,O=C1C(Br)=C(Br)C(=O)c2ccccc21 [NSC618332],-7.70
7,C/C=C(\CCC1NCCc2c1[nH]c1ccccc21)[Si](C)(C)C (stereo not drawn) [NSC619165],-14.52
8,O=C([O-])c1cc(I)cc(I)c1[OH2+].O=C([O-])c1cc(I)cc(I)c1[OH2+].[Mn+2] [NSC619907],-115.80
9,COC(=O)C[S+]([O-])c1ccccc1 (stereo not drawn) [NSC620050],-37.27
10,O=C1CC[C@H](NC(=O)Cc2ccccc2)C(=O)N1 [NSC620261],-132.95
11,N#CCCN(CCC#N)c1ccc(C=Nc2ccc(F)cc2)cc1 [NSC620277],-46.45
12,CCOC(=O)c1ccc(N=Cc2ccc(N(CCC#N)CCC#N)cc2)cc1 [NSC620279],-17.13
13,Cc1c(N=Cc2ccc(N(CCC#N)CCC#N)cc2)c(=O)n(-c2ccccc2)n1C [NSC620280],-51.47
14,C=C1C(=O)C23CC[C@@H]4C(C)(C(=O)OC)CCCC4(C)[C@@H]2CCC1(O)C3 (stereo partly drawn) [NSC620358],-24.86
15,CC1=NN(C(=O)c2ccncc2)C(=O)C1N=Nc1ccc(F)cc1 (stereo not drawn) [NSC621094],-33.52
16,Cc1cc2c(cc1C)[n+](=O)c(C(=O)/C=C/c1ccccc1[N+](=O)[O-])c(C)n2[O-] [NSC621486],-0.42
17,C[N+](C)(C)CC1CCCC1=O.[I-] (stereo not drawn) [NSC621889],-0.31
18,[Mo] [NSC622116],-10.74
19,[Mo] [NSC622124],0.01
20,COc1ccc(-n2/c(=N/C(=S)N(C)C)ss/c2=N\C(=S)N(C)C)cc1 [NSC622586],-55.77
21,CN(C)C(=S)/N=c1\ss/c(=N\C(=S)N(C)C)n1-c1ccc2c(c1)OCO2 [NSC622589],-7.95
22,Br.CN(C)c1nc(=NCc2ccco2)ss1 [NSC622608],-22.44
23,CCOC(=O)CCc1c(C)c2c(O)cc(O)cc2oc1=O [NSC622616],-39.56
24,O=[N+]([O-])c1cc(C(F)(F)F)cc([N+](=O)[O-])c1CCl [NSC622627],-26.97
25,NC(=O)c1c([N+](=O)[O-])cc(C(F)(F)F)cc1[N+](=O)[O-] [NSC622640],-12.99
26,CCOC(=O)/N=C(\N)SCc1ccccc1 [NSC622684],-0.38
